Series [1] relates to N27 cells. Put plainly: Cytotoxicity (LDH) assay after PFF exposure. The format is cell-based, rat. To be noted: N27 cells, PFF treatment; compared to PFF only control. How it is done:
Cytotoxicity Assay. The lactate dehydrogenase (LDH) is a cytosolic enzyme that is released into the media during cellular stress and increased levels of cytotoxicity. The cytotoxicity assay was measured using reagents from the Pierce LDH Cytotoxicity Assay Kit (88954, Thermo). For the assay, 50 μL of media from each well after PFF exposure, followed by SENP-1 treatment, was put into wells of a new 96-well plate. The LDH reagents were prepared according to the protocol provided, and 50 μL of the LDH reagent was mixed into each well. The total 100 μL of media containing LDH and its reagent were incubated at 37° C. for 30 min, followed by the application of a stop solution. The mixture was analyzed using a spectrophotometer (SpectraMax M5e, Molecular devices) at 490 nm with a reference wavelength of 680 nm.
In this study, numerous commercially available SENP-1 inhibitors were tested for the recovery effects from preformed fibrils of alpha-synuclein (PFF)-induced PD models in vitro. The screening process includes several SENP-1 inhibitors, including specific SENP-1 inhibitors (e.g., SUMO-2 Aldehyde, Momordin lc, streptonigrin, hinokiflavonem, and siRNAs of SENP-1) and nonspecific SENP-1 inhibitors (e.g., oleanolic acid, gallic acid), in N27 dopaminergic cells after the exposure of PFF for 24 hrs.

For a further series, the target named is T1, SENP-1 (Mus musculus, UniProt P59110).
T1 construct: from tissue; host or cells: mouse brain: midbrain (MB) and striatum (STR) extracts
T1 sequence (P59110 1-640): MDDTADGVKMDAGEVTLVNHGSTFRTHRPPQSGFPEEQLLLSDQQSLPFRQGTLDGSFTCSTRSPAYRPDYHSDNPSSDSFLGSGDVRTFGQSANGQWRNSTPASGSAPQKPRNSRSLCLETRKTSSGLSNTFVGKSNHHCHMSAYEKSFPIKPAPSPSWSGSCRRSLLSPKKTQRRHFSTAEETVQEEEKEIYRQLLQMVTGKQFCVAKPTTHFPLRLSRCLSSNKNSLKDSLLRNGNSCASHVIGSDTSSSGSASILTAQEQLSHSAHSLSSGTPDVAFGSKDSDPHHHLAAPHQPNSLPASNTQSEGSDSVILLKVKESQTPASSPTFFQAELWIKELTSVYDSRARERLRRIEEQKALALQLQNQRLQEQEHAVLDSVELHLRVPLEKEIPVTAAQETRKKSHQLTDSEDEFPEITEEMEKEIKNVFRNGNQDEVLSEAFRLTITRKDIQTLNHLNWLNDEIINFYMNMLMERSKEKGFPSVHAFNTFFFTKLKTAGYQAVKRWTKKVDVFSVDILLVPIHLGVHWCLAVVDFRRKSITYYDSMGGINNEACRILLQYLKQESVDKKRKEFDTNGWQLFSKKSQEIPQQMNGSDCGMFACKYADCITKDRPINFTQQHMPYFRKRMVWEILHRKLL
As to the kind of experiment: Western blot of SENP-1 in brain tissue extracts of PFF-injected mice. The format is in vivo. To be noted: vs PFF only. As to the method: A mouse model of Parkinson's disease is C57BL/6 male or female mice (50% each) injected with 5 μg of mouse PFF at 12 months old, followed by a treatment below for 6-7 weeks: • 1) without PFF injection, followed by vehicle (control, n=7); • 2) PFF injection, followed by vehicle (PFF only: control, n=8); • 3) PFF injection, followed by daily 10 mg/kg Momordin gavage (n=7-8); • 4) PFF injection, followed by daily 50 mg/kg Momordin gavage (n=7-8).
Immunoblot Analyses. A total of three protein extractions were performed. In the first extraction, a gentle RIPA buffer containing the low concentration of detergent (25 mM Tris-HCL, 150 mM NaCl, 1% NP-40, 1% sodium deoxycholate and 0.1% SDS) was added with phosphatase inhibitors (100 μL for 10 mL) and 5 mM EDTA. The mixture was sonicated and centrifuged at 14,000 rpm for 10 min. The supernatant was collected for measuring the levels of phosphorylated α-syn, SENP-1 or SUMO-1 conjugated proteins for different groups. […] The primary antibodies pertaining to each protein analyzed were diluted at 1:1000 (p-Ser-129-α-synuclein, Cell signaling; SENP-1, SAB4501345, EMD) and incubated at 4° C. overnight. […] ImageJ was used to analyze specific bands on each blot and measured against the loading control (β-actin) for normalizing each band intensity.
Background: Immunoblotting shows a protein as a band on a membrane.

Series [2] concerns N27 cells. As to the kind of experiment: ROS level (CellROX deep red) after PFF treatment. In kind it is cell-based, rat. To be noted: compared to PFF only control. As to the method: ROS Levels and Thioflavin-T Assessment. The reactive oxygen species (ROS) is a released byproduct during oxidative stress. On the other hand, thioflavin-T is an assay used to understand the level of protein aggregation that can be detrimental to cell survival. In order to assess the level of oxidative stress, all the SENP-1 inhibitors treated cells were incubated in media containing 5 μg/mL of the ROS reagent CellROX deep red reagent (C10422, Thermo Fisher Scientific) and 25 μg/mL of thioflavin-T reagent (CAS: 2390-54-7, Acros Organics) at 37° C. for 30 min. The cells were then washed 3 times with warm phosphate-buffered saline (PBS) without Ca^2+ or Mg^2+ (137 mM NaCl, 2.7 mM KCl, 4.3 mM Na2HPO4, and 1.47 mM KH2PO4), and several images from each well were collected using EVOS FL Cell Imaging Systems (Invitrogen, MA, USA). A minimum of 2 wells were dedicated to each group, and the experiments were repeated 3-4 times independently (total replicated: n=8-10/group). The intensity of red fluorescence corresponding to ROS levels and green labels corresponding to protein aggregation was analyzed by blinded raters using ImageJ.

This is an account of results in patent US20260021167A1, “COMPOSITIONS AND METHODS FOR TREATING OR PREVENTING NEURODEGENERATIVE DISEASES” (Delaware State University, priority 2022, published 2026).

Consider `CC1(C)CC[C@]2(C(=O)O)CC[C@]3(C)C(=CC[C@@H]4[C@@]5(C)CC[C@H](O[C@@H]6O[C@H](C(=O)O)[C@@H](O)[C@H](O[C@@H]7OC[C@@H](O)[C@H](O)[C@H]7O)[C@H]6O)C(C)(C)[C@@H]5CC[C@]43C)[C@@H]2C1` [Momordin lc], for which the “cytotoxicity derived from PFF (LDH assay)” value in the series with N27 cells [1] was “significantly reduced the cytotoxicity”. Besides, at SENP-1 (midbrain), the “PFF-induced SENP-1 in the MB (Western blot, tissue extracts)” value was “reduced”. Besides, the “PFF-induced SENP-1 in the STR (Western blot, tissue extracts)” value at SENP-1 (striatum) is listed as “reduced”. For the same compound, in the series on N27 cells [2], the “level of ROS” value was “reduced the level of ROS”.
